# PubChem BioAssay AID1508612
# Assay: passive permeability, PAMPA, ADME assay (AID 1508612)
# Settings: pH 7.4, 30.0 min, 50.0 µM
row,Compound,Papp
1,Cc1ccc(-c2ccnc(N3CCC(C(N)=O)CC3)n2)cc1,577 ×10⁻⁶ cm/s
2,COc1cc2c(cc1OCCCN1CCCC1)N=C(N)C21CCC1,6.08 ×10⁻⁶ cm/s
3,Cc1ccc(-c2csc(NC(=O)c3ccccc3NS(=O)(=O)c3ccc(C)cc3)n2)cc1,35.6 ×10⁻⁶ cm/s
4,COc1ccc(NC(=O)c2c(C)cccc2C)cc1[S+](=O)([O-])N(C)C,196 ×10⁻⁶ cm/s
5,Cn1cc(Cl)c(C2N=C(Nc3nc4ccccc4o3)NC3=C2C(=O)CCC3)n1 (configuration not stated),633 ×10⁻⁶ cm/s
6,CCOc1cc(=O)n2c(c1C(=O)Nc1cc(OC)c(Cl)cc1OC)CCCC2,96.6 ×10⁻⁶ cm/s
7,COc1ccccc1Nc1ccnc(N2CCN(C(=O)c3ccccc3Cl)CC2)n1,173 ×10⁻⁶ cm/s
8,CCOC(=O)c1csc(NC(=O)c2ccncc2NS(=O)(=O)c2ccc(C)cc2)n1,114 ×10⁻⁶ cm/s
9,Fc1cccc(-c2ccc(Nc3nc(-c4ccncc4)nc4ccccc34)cc2F)c1,49 ×10⁻⁶ cm/s
10,Cc1cc(Br)ccc1NC(=O)C(NS(=O)(=O)c1cccs1)c1ccccc1 (configuration not stated),< 1 ×10⁻⁶ cm/s
11,c1coc(-c2nc3ccncc3[nH]2)c1,27.9 ×10⁻⁶ cm/s
12,CN1C(=O)CN=C(c2ccccc2Cl)c2cc(Cl)ccc21,> 1000 ×10⁻⁶ cm/s
13,c1cn2cc(-c3ccc4cn[nH]c4c3)nc(Nc3ccc(N4CCOCC4)cc3)c2n1,391 ×10⁻⁶ cm/s
14,Cc1cccc2nc(-c3ccccn3)c(Nc3ccc(F)cc3)n12,> 1000 ×10⁻⁶ cm/s
15,COc1cc(Nc2nc(-c3ccncc3)nc3ccccc23)ccc1NS(C)(=O)=O,> 1000 ×10⁻⁶ cm/s
16,Clc1ccc(Nc2nc(-c3ccncc3)nc3ccccc23)cc1Cl,76.1 ×10⁻⁶ cm/s
17,O=C(Nc1nc(-c2ccccc2)cs1)c1ccncc1NS(=O)(=O)c1cccc2cccnc12,445 ×10⁻⁶ cm/s
18,NC(=O)C1CCN(c2ncnc(-c3ccc4c(c3)OCCCO4)n2)CC1,254 ×10⁻⁶ cm/s
19,CC1=C(C(=O)Nc2nc3ccccc3s2)C(c2[nH]ncc2Cl)N=C(Nc2nc3ccccc3o2)N1 (configuration not stated),6 ×10⁻⁶ cm/s
20,Cc1cccc(NCc2ccc(O)c3ncccc23)c1,< 1 ×10⁻⁶ cm/s
21,CNc1nc(-c2cccc3ccccc23)ccc1C#N,985 ×10⁻⁶ cm/s
22,N#Cc1nc(-c2cccc3ccccc23)oc1Nc1ccccc1,821 ×10⁻⁶ cm/s
23,COc1ccc(Nc2nc(-c3cccc(OC)c3)no2)cc1,34.5 ×10⁻⁶ cm/s
24,CCOC(=O)c1ccc(-n2c(C)cc(-c3nnc4n3CCCCC4)c2C)cc1,353 ×10⁻⁶ cm/s
25,O=C(NC1CCCc2c1cnn2-c1ccc(F)cc1F)c1ccc(C2(C(F)(F)F)N=N2)cc1 (configuration not stated),< 1 ×10⁻⁶ cm/s
26,NC(=O)C1CCN(c2nc(-c3cccs3)cs2)CC1,195 ×10⁻⁶ cm/s

row,Compound,Papp
1,Fc1ccc(-c2ccc(Nc3nc(-c4ccncc4)nc4ccccc34)cc2F)c(F)c1,19.5 ×10⁻⁶ cm/s
2,Cc1ccc(S(=O)(=O)Nc2cc(C(=O)Nc3nc(-c4ccccc4)cs3)ccn2)cc1,259 ×10⁻⁶ cm/s
3,CC(C)c1ccccc1-c1ncc(F)c(NCc2ccc(-n3ccnn3)cc2)n1,> 1000 ×10⁻⁶ cm/s
4,C#CC1(O)CCC2C3CCC4=C/C(=N/OCC(=O)NCC(=O)NC(C(=O)O)C(C)C)CC[C@]4(C)C3CC[C@@]21C (some centres not stated),4.52 ×10⁻⁶ cm/s
5,CCOc1ccc(NC(=O)c2ccc(F)c(S(=O)(=O)N(CC)Cc3ccccc3)c2)cc1,< 1 ×10⁻⁶ cm/s
6,C#CCOc1ccc(-c2nnc(Nc3ccc(NC(C)=O)cc3)c3ccccc23)cc1,502 ×10⁻⁶ cm/s
7,COc1ccc(OC)c(-n2c3c(cc(-c4nc(-c5ccc(Cl)cc5)cs4)c2=O)C(=O)CC(C)(C)C3)c1,216 ×10⁻⁶ cm/s
8,Nc1cc(CN2C(=O)c3ccccc3C2=O)cc(Cl)c1O,352 ×10⁻⁶ cm/s
9,CCC(C)N(C)C(=O)c1cc2ccccc2c(-c2ccccc2Cl)n1 (configuration not stated),> 1000 ×10⁻⁶ cm/s
10,O=C1CCCC2=C1C(c1ccncc1Br)N=C(Nc1nc3ccccc3o1)N2 (configuration not stated),> 1000 ×10⁻⁶ cm/s
11,Cc1nnc(N2C(=O)c3oc4ccccc4c(=O)c3C2c2ccc(F)cc2)s1 (configuration not stated),314 ×10⁻⁶ cm/s
12,Cc1ccc(C(=O)NC2CCN(c3cnn(CC4CC4)c(=O)c3)CC2)cc1C,473 ×10⁻⁶ cm/s
13,CSc1nnc2c3ccccc3n(CCc3ccccc3)c2n1,> 1000 ×10⁻⁶ cm/s
14,COc1ncc(-c2ccc3c(Nc4cc(Oc5cc(F)cc(F)c5)cc(C(=O)O)c4)c(S(=O)(=O)NC4CC4)cnc3c2)c(OC)n1,< 1 ×10⁻⁶ cm/s
15,Cc1ccc2oc3c(c(=O)c2c1)C(c1ccc(O)cc1)N(CCCN(C)C)C3=O (configuration not stated),< 1 ×10⁻⁶ cm/s
16,C/C=C1/CN2CC[C@@]34c5ccccc5N(C)[C@@H]3[C@@H]2C[C@@H]1[C@H]4C(=O)OC,895 ×10⁻⁶ cm/s
17,NC(=O)C1CCN(c2nc(-c3cccc(Cl)c3)cs2)CC1,> 1000 ×10⁻⁶ cm/s
18,COc1ccc(Cn2c(=O)[nH]c3cc(C(=O)NCCCN4CCCCC4)ccc3c2=O)cc1,16.8 ×10⁻⁶ cm/s
19,c1ccc(-c2nnc3n2NC(c2ccc4c(c2)OCO4)S3)cc1 (configuration not stated),607 ×10⁻⁶ cm/s
20,COC(=O)c1ccc(NS(=O)(=O)c2c(C)nc3sccn3c2=O)cc1,333 ×10⁻⁶ cm/s
21,CC(=O)Nc1ncc(S(=O)(=O)N2CCOCC2)s1,37.9 ×10⁻⁶ cm/s
22,O=C(Cc1c[nH]c2ncc(-c3ccc(Cl)cc3)cc12)NCc1cccnc1,> 1000 ×10⁻⁶ cm/s
23,CN(Cc1cnc2nc(N)nc(N)c2n1)c1ccc(C(=O)N[C@@H](CCC(=O)O)C(=O)O)cc1,5.39 ×10⁻⁶ cm/s
24,CN1CCN(c2ccc(Nc3nn4c(=O)c5ccccc5nc4s3)cc2)CC1,653 ×10⁻⁶ cm/s
25,Cc1cccc2nc(-c3cccnc3)c(Nc3ccc(C(C)C)cc3)n12,> 1000 ×10⁻⁶ cm/s
26,COC[C@@H]1CN(C(=O)c2nn(C)c3ccccc23)C[C@H]1c1nc(C)no1,165 ×10⁻⁶ cm/s

row,Compound,Papp
1,COc1ccc(-c2nc3sc(CCNC(=O)C(C)(C)C)c(C)n3n2)cc1,214 ×10⁻⁶ cm/s
2,NCC(=O)Nc1cncc(-c2nn3c(=O)cc(N4CCNCC4)nc3s2)c1,< 1 ×10⁻⁶ cm/s
3,COc1cc(C(=O)NC2CCCc3c2[nH]c2c(Cl)cccc32)cc(OC)c1OC (configuration not stated),593 ×10⁻⁶ cm/s
4,NC(=O)C1CCN(c2ncc(-c3ccc4c(c3)OC(F)(F)O4)s2)CC1,438 ×10⁻⁶ cm/s
5,COc1cccc(CNc2ccc(S(=O)(=O)Nc3ncc(-c4ccccc4)s3)cc2)c1O,36.6 ×10⁻⁶ cm/s
6,Cc1ccc2[nH]c(-c3ccccc3)cc(=O)c2c1,74.9 ×10⁻⁶ cm/s
7,COc1ccccc1NC(=O)C1=C(C)Nc2c(C(=O)Nc3cccc(C)c3)cnn2C1c1ccccc1Cl (configuration not stated),751 ×10⁻⁶ cm/s
8,COc1ccc(Nc2cc(C)nc(-n3nc(C)cc3C)n2)cc1Cl,> 1000 ×10⁻⁶ cm/s
9,Cc1cccc2c(C(=O)O)cc(-c3cccs3)nc12,18.8 ×10⁻⁶ cm/s
10,CC(=O)Nc1cc(-c2nc(Nc3ccc(F)c(F)c3)c3ccccc3n2)ccn1,438 ×10⁻⁶ cm/s
11,Clc1ccc2ncc(-c3cccc(NC4CNC4)n3)n2c1,182 ×10⁻⁶ cm/s
12,CCOc1ccc(CNC(=O)CCCn2nc(C)c3c(C)n(-c4ccc(C)cc4)nc3c2=O)cc1,843 ×10⁻⁶ cm/s
13,Cc1ccccc1C(=O)N1CCc2cc(-c3nc(NC(=O)Cc4ccc5c(c4)OCCO5)sc3C)ccc21,761 ×10⁻⁶ cm/s
14,Cc1ccc(S(=O)(=O)Nc2cc(F)ccc2C(=O)Nc2nc(-c3ccccc3)cs2)cc1,244 ×10⁻⁶ cm/s
15,[2H]C([2H])(Nc1nc(-c2ccccc2C([2H])(C([2H])([2H])[2H])C([2H])([2H])[2H])ncc1C)c1ccc(-n2ccnn2)cc1,> 1000 ×10⁻⁶ cm/s
16,COc1cccc(-c2noc(Nc3ccc4c(c3)OCCO4)n2)c1,202 ×10⁻⁶ cm/s
17,Cc1cccc(-n2cnc3cc(C(=O)N4CCCC(C)C4)ccc32)c1 (configuration not stated),> 1000 ×10⁻⁶ cm/s
18,C=C1C(=O)OC2C1CCC(C)C1(O)C=CC(=O)C21C (configuration not stated),64.6 ×10⁻⁶ cm/s
19,COc1ccc(-c2ccc(Nc3nc(-c4ccncc4)nc4ccccc34)cc2F)cc1F,39.9 ×10⁻⁶ cm/s
20,CCOc1ccc(N2C(=O)c3n[nH]c(-c4cccs4)c3C2c2cccc(F)c2)cc1 (configuration not stated),82.4 ×10⁻⁶ cm/s
21,Cc1sc(NC(=O)Cc2ccc3c(c2)OCO3)nc1-c1ccc2c(c1)CCN2C,< 1 ×10⁻⁶ cm/s
22,COCCNc1ncnc2onc(-c3ccc(F)cc3)c12,458 ×10⁻⁶ cm/s
23,CC(=O)Nc1cccc(Nc2nc3ccccc3n3c(C)nnc23)c1,266 ×10⁻⁶ cm/s
24,NC(=O)C1CCN(c2nc(-c3ccc(C(F)(F)F)cc3)cs2)CC1,292 ×10⁻⁶ cm/s
25,O=C1CCCC2=C1C(c1[nH]ncc1Cl)N=C(Nc1nc3c(Cl)cccc3o1)N2 (configuration not stated),162 ×10⁻⁶ cm/s
